In BigSolDB 2.1:

Compound | solubility (mole fraction) (in n-hexane, 293.2 K) | solubility (mole fraction) (in n-hexane, 298.2 K) | solubility (mole fraction) (in n-hexane, 303.2 K) | solubility (mole fraction) (in n-hexane, 310.2 K) | solubility (mole fraction) (in n-hexane, 315.2 K) | solubility (mole fraction) (in n-octanol, 293.2 K) | solubility (mole fraction) (in n-octanol, 298.2 K) | solubility (mole fraction) (in n-octanol, 303.2 K) | solubility (mole fraction) (in n-octanol, 310.2 K) | solubility (mole fraction) (in n-octanol, 315.2 K) | solubility (mole fraction) (in n-octanol, 288.2 K) | solubility (mole fraction) (in n-octanol, 290.7 K) | solubility (mole fraction) (in n-octanol, 295.7 K)
COc1ccc(Nc2nc(CC(C)O)ns2)cc1 (stereo not given) | 9.2e-06 | 1.51e-05 | 2.02e-05 | 3.51e-05 | 4.8e-05 | 0.0466 | 0.0627 | 0.0694 | 0.101 | 0.121 | – | – | –
CC(O)Cc1nsc(Nc2ccc(Cl)cc2)n1 (stereo not given) | 3.5e-06 | 5.2e-06 | 6.9e-06 | 1.13e-05 | 1.73e-05 | 0.0187 | 0.0218 | 0.0245 | 0.029 | 0.035 | – | – | –
Cc1cccc(Nc2nc(CC(C)O)ns2)c1 (stereo not given) | 2.49e-05 | 3.4e-05 | 4.59e-05 | 5.6e-05 | 7.05e-05 | 0.0266 | 0.0355 | 0.038 | 0.0501 | 0.0558 | – | – | –

Next, values leading:

solubility (mole fraction) (in n-hexane, 293.2 K) | solubility (mole fraction) (in n-hexane, 298.2 K) | solubility (mole fraction) (in n-hexane, 303.2 K) | solubility (mole fraction) (in n-hexane, 310.2 K) | solubility (mole fraction) (in n-hexane, 315.2 K) | solubility (mole fraction) (in n-octanol, 293.2 K) | solubility (mole fraction) (in n-octanol, 298.2 K) | solubility (mole fraction) (in n-octanol, 303.2 K) | solubility (mole fraction) (in n-octanol, 310.2 K) | solubility (mole fraction) (in n-octanol, 315.2 K) | solubility (mole fraction) (in n-octanol, 288.2 K) | solubility (mole fraction) (in n-octanol, 290.7 K) | solubility (mole fraction) (in n-octanol, 295.7 K) | Compound
5.5e-06 | 9e-06 | 1.32e-05 | 2.4e-05 | 3.62e-05 | 0.0546 | 0.0633 | 0.0729 | 0.0885 | 0.101 | – | – | – | CC(O)Cc1nsc(Nc2cccc(Cl)c2)n1 (stereo not given)
2.95e-05 | 3.79e-05 | 4.73e-05 | 5.55e-05 | 6.64e-05 | 0.0488 | 0.054 | – | – | – | 0.0441 | 0.0465 | 0.0515 | Cc1ccc(Cl)cc1Nc1nc(CC(C)O)ns1 (stereo not given)
3.2e-06 | 4.8e-06 | 6.2e-06 | 9.2e-06 | 1.28e-05 | 0.0121 | 0.0134 | 0.0166 | 0.021 | 0.0251 | – | – | – | Cc1ccc(Nc2nc(CC(C)O)ns2)cc1Cl (stereo not given)
